Values after ≈ are worked out from the molar mass of the structure shown.
Tests used:
[1] = test system: CBA/CaJ thymocytes (irradiated BDF1 splenocyte stimulators); experiment: T cell proliferation in mixed leukocyte cultures, CBA/CaJ thymocytes; type: cell-based, mouse; details: Study 3, responder +, stimulator +
From the text: A third and fourth study utilized thymocytes from CBA/CaJ mice as the stimulated (responder) cells, and irradiated BDFl mouse spleen cells as the stimulator cells. Two guanosine derivatives of the present invention, 7a8MGuo and 7a8oGuo, were used for these studies, with 8MGuo serving as positive control for one of the studies.
However, in the presence of interleukin-2 (IL-2), those cells develop responsiveness to allogeneic stimulation. The present studies utilizing thymocytes were therefore carried out in the presence of a co-stimulating amount of IL-2.
(§1) ^1 Plus signs (+) are utilized to indicate the presence of the
(§2) ^3 Allogeneic cells used to costimulate proliferation, after exposure
(§3) T Helper Cell Activation. 1.5×10^5 viable spleen cells from SJL mice or CBA/CaJ mouse thymocytes were cultured with or without an equal number of irradiated (2500 rads) spleen cells from CBA/CaJ or BDFl mice respectively, in 0.2 ml of culture medium in the presence of incremental concentrations of the exemplary 7,8-disubstituted guanine derivatives. The lymphocyte culture medium utilized was that described before, and was further supplemented with 2-mercaptoethanol to a final concentration of 50 uM. Thymocyte cultures also contained 10 percent (v/v) of a concanavalin A-conditioned rat spleen cell medium sold under the name Rat T Cell Monoclone by Collaborative Research. Following 90 hours of culture, one microCurie [^3 H]TdR per culture was admixed, and the resulting culture was maintained for a further six hour time period.
(§4) The cultures were harvested with a Brandel cell harvester (M24V, Biological Research and Development Laboratories, Rockville, Md.) onto glass fiber filter disks. Filter disks were transferred to plastic scintillation vials, covered with liquid scintillation cocktail, and counted in a Beckman LS5700 liquid scintillation counter.

[2] = test system: human peripheral blood lymphocytes (sheep red blood cells as antigen); experiment: Antigen-specific adjuvanticity: direct anti-SRBC plaque forming cells, human system; type: cell-based; details: for Peak Direct anti-SRBC PFC/Culture: Table 7, second group
Description: ^1 Studies were carried in a manner similar to those of Table 1,
except that a human lymphocyte preparation was used.
The results shown in Table 7, below, were obtained similarly to those discussed above, but using human lymphocytes. Some of those studies utilized lymphocytes from more than one individual, and are therefore reported with multiple entries.
Human peripheral blood lymphocytes (PBL) were prepared from normal heparinized venous blood by Ficoll-diatrizoate density gradient centrifugation. PBL were depleted of suppressor T cells bearing the histamine type 2 receptor by adhering them to the surfaces of histamine-rabbit serum albumin-coated plastic petri dishes (Cell-ect No. 2 kit; Seragen, Boston, Mass.) and by recovering the nonadherent cells by panning as described by Wysocki and Sato, Proc. Natl. Acad. Sci. USA, 75:2844 (1978) and modified by Cavagnaro and Osband, Biotechniques, January/February:30 (1983).
The tissue culture medium employed in these studies for human lymphocytes was prepared as follows: One hundred milliliters (ml) contained 87.9 ml RPMI 1640 (Flow Laboratories, Rockville, Md.), 0.1 ml 100×glutamine,1.0 ml of 1.0 M HEPES buffer (Microbilogical Associates, Betheseda, Md.), 1.0 ml of water containing 10^4 U of penicillin G and 10^4 micrograms of streptomycin, and 10 ml of fresh autologous heat-inactivatedplasma. For evaluation of the primary humoral immune response to SRBC, lymphoid cells prepared as above were cultured at a density of 2×10^6 /ml in a volume of 1.0 ml containing 5×10^6 SRBC as antigen (Colorado Serum Co., Denver, Colo.) together with IL-2 (a partially purified preparation of human IL-2 that was free of interferon-gamma activity was obtained from Electro-Nucleonics, Inc., Silver Spring, Md.) and the guanine nucleoside derivative.
Assay of plaque forming cells (PFC). PFC secreting antibodies against SRBC were evaluated after 4 or 5 days of culture using a modification of the hemolytic plaque assay of Jerne and Nordin, Science, 140:405 (1963). The cells were brought up in complete medium before plaquing; they were plaqued in standard low Mr agarose (Bio-Rad Laboratories, Richmond Calif.), and were incubated in SRBC-absorbed guinea pig complement for one hour after a 1.5 hour incubation without complement.

[3] = test system: SJL splenocytes (irradiated CBA/CaJ splenocyte stimulators); experiment: T cell proliferation in mixed leukocyte cultures, SJL splenocytes; type: cell-based, mouse; details: responder +
From the text: In evaluating the effect of a guanosine derivative on alloantigen-induced proliferation, it is imperative to minimize the simultaneous mitogenic response of B cells to contact with a guanosine derivative. Spleen cells from SJL mice (whose B cells are hyporesponsive to the mitogenic effect of a guanosine derivative, but not to its adjuvant activity) were used as responder cells in two studies. Those responder cells were stimulated with irradiated allogenic cells (from CBA/CaJ mice) in the presence of no added nucleoside, incremental amounts of a guanosine derivative of the invention, 7M8oGuo, or with another guanosine derivative, 8MGuo, used as a positive control.
as §1
material of the column heading in the culture medium, whereas minus signs
(-) are utilized to show absence of such a material from the culture
as §2, §3, §4

physchem = type: physicochemical, human
From the text: Solubilities in urine could be expected to be lower than those for water due to the relatively higher salt content in urine than is found in water.
Each sample was filtered through a 5 micron pore-sized filter, diluted as necessary with the HPLC mobile phase, and then quantified by HPLC.

For `C=CCn1c(=S)n([C@@H]2O[C@H](CO)[C@@H](O)[C@H]2O)c2nc(N)[nH]c(=O)c21` [7a8MGuo, 7-(2-Propenyl)-8-thioxoguanosine], the “[3H] TdR Uptake” value ([1]; 10^-4 M) was 21,400 ± 1200 counts per minute, the “[3H] TdR Uptake” value ([1]; 10^-5 M) was 15,300 ± 600 counts per minute and the “[3H] TdR Uptake” value ([1]; 10^-6 M) was 11,800 ± 400 counts per minute. The “Peak Direct anti-SRBC PFC/Culture” value ([2]; person a) was 673 PFC/Culture, the “Peak Direct anti-SRBC PFC/Culture” value ([2]; person b) was 6475 PFC/Culture and the “Peak Direct anti-SRBC PFC/Culture” value ([2]; person c) was 3058 PFC/Culture. For the same compound, the “Average 1 Log Plaque Values” ([2]; Table 9, human, * = single study) was 45,630 ± 28,808 per micromole, the “[3H] TdR Uptake” value ([3]; Study 1, stimulator +, 10^-5 M) was 67,500 ± 2900 counts per minute and the “[3H] TdR Uptake” value ([3]; Study 1, stimulator -, 10^-5 M) was 36,700 ± 2400 counts per minute. The “[3H] TdR Uptake” value ([3]; Study 2, stimulator +, 10^-5 M) was 36,400 ± 3800 counts per minute, the “[3H] TdR Uptake” value ([3]; Study 2, stimulator -) was 19,100 ± 1100 counts per minute and the “solubility in human urine, in words” value (physchem) was “relatively insoluble”. It also gave a solubility at 18 h (physchem; human, urine) of 300 µg/mL (≈ 844 µM).

— US5011828A, “Immunostimulating guanine derivatives, compositions and methods” (priority 1988, dated 1991)
